Measurements reported in paper PMC9696361, “Nanocrystallization Improves the Solubilization and Cytotoxic Effect of a Poly (ADP-Ribose)-Polymerase-I Inhibitor” (Polymers, 2022).
Converted amounts (≈) assume the structure as drawn.

How the values were obtained:
[1] = Saturation solubility of pure OLA and its NCs; type: physicochemical; conditions: thermodynamic from solid
Method: The excess amount of pure OLA and NCs in triplicate were added into 1 mL of each solvent in glass vials. The mixtures were vortexed for 30 s and put into an orbital shaking (at 100 stroke per min) water bath (Julabo®, Allentown, PA, USA) maintained at 37 ± 1 °C for 72 h. Thereafter, vials were taken out and kept at room temperature for 24 h to settle down the undissolved drugs. Then, the supernatants were collected, filtered by 0.45 µ filtration unit (Millipore, Molsheim, France), diluted (if needed) and 30 µL was injected into HPLC-UV system for the quantification of the dissolved drugs.

MCF-7 cells = test: MTT or cell proliferation assay; type: cell-based; conditions: Homo sapiens, MCF7, 48 h, 48 h of incubation, MTT
Method: The MCF-7 cells were procured from the American Type Cutler Collection (Manassas, VA, USA). Cells were grown in 50 cm^2 tissue culture flasks using “Dulbecco’s Modified Eagle Medium (DMEM) (UFC Biotech, Riyadh, Saudi Arabia)” at 37 °C in an incubator humidified by 5% CO2. The media was accompanied with 10% fetal bovine serum (Alpha Chemika, Mumbai, India), 1% mixture of Penicillin (100 units·mL^−1): Streptomycin (100 µg·mL^−1) by ThermoFischer Scientific, Waltham, MA, USA, Amphotericin-B (250 ngmL^−1) by Gibco® (Grand Island, NY, USA) and 1% of L-glutamine (BioWest, Riverside, MO, USA). The MTT was purchased from Sigma Aldrich, St. Louis, MO, USA. […]
The anticancer activity of pure drug (OLA)-AqS and OLA-NCs-2 against MCF-7 were examined by assessing the viability of the treated cells by MTT assay. […] The assay was done by observing the enzymatic reduction of a water-soluble dye [3-(4,5-dimethylthiazol-2-yl)-2,5-diphenyltetrazolium bromide] into an insoluble formazan, where the quantitation of formazan designates the relative viability of the cells. […] Optical density (OD) was measured at 570 nm using the spectrophotometric microplate reader (Synergy HT, BioTek Instruments, Winooskim, VT, USA). The cell viability (%) was calculated by Equation (4). […] The IC50 values were calculated as Log (inhibitor) versus normalized response on variable slopes through GraphPad Prism V-5.1. […]

P-glycoprotein (Pgp) = system: P-glycoprotein (Pgp); design: method as in PMID 24700236; conditions: cited from earlier work
Caspase-3 = Caspase-3 by ELISA in MCF-7 cells; type: cell-based, human; conditions: OLA 10 µgmL^−1, vs untreated control
Method: (§1) The p53, Caspase-3 and Caspase-9 activities were measured by ELISA kits following the manufacture’s protocol and reported works. The MCF-7 cells (5 × 10^4 cells/well) were seeded in 96-well plates. The seeded cells were treated with the AqS of OLA-pure and OLA-NCs. The concentration of OLA was kept 10 µgmL^−1, which was approximately near to the IC50 value of the OLA-NCs-2 (9.71 µgmL^−1). The untreated cells were served as control. All the treated cells were allowed to equilibrate at ambient temperature. Approximately 100 µL of p53, Caspase-3 and Caspase-9 reagents were transferred into the respective wells of the plate containing 100 µL of culture media. The plates were covered and stirred for 1–2 min at 500 rpm and then incubated at ambient temperature. After 1 h of incubation the OD was measured at 405 nm wavelength by microplate reader.

[2] = design: method as in PMID 24700236; conditions: cited from earlier work
Caspase-9 = Caspase-9 by ELISA in MCF-7 cells; type: cell-based, human; conditions: OLA 10 µgmL^−1, vs untreated control
Method: as §1

p53 = p53 by ELISA in MCF-7 cells; type: cell-based, human; conditions: OLA 10 µgmL^−1, vs untreated control
Method: as §1

[3] = Oral pharmacokinetic study in rats; type: in vivo, Male Wistar rats
[4] = Oral pharmacokinetic study in rats; type: in vivo, Male Wistar rats; remark: listed apart in the source
Method: Male Wistar rats were used for this study. The Standing Committee of Bioethics Research (SCBR) at Prince Sattam bin Abdulaziz University, Deanship of Scientific Research has granted the animal ethical approval (SCBR-030-2022) for in vivo studies on rats. Twelve rats were divided in two groups. Group-1 for OLA-AqS and Group-II for OLA-NCs. Each animal of the respective groups received OLA-AqS and OLA-NCs individually. Oral route was selected for the administration of all OLA formulations at 25 mg·kg^−1 of body weight equivalent dose of OLA was given orally to all animals. At predetermined time points (0.25, 0.5, 1, 3, 6 and 9 h) approximately 0.5 mL of blood was aspirated through retro orbital plexus from each animal. The samples were collected in heparinized tubes and centrifuged at 6000 rpm for 10 min and at 4 °C to obtain the plasma. Approximately 200 µL supernatant (plasma) was collected and stored at −80 °C till analysis was performed.
Previously reported RP-HPLC method was used for the analysis of OLA in the plasma samples [7, 20]. In brief, the HPLC system (Waters® 1500 Series, Milford, MA, USA) was fitted out with UV-dual absorbance detector (Waters® Model-2489), Binary pump (Waters® Moel-1525), Autosampler (Waters® Model-2707 plus). The HPLC-UV system was monitored and controlled by the “Breeze software”. A C18 Waters symmetry column (150 × 4.6 mm, 5 µm, particle size) was used for the elution of OLA and Paclitaxel (used as internal standard, IS). The mobile phase composed of ammonium acetate buffer (pH was adjusted to 3.5 by Orthophosphoric acid) and Methanol at 50:50 (v/v) was pumped at isocratic mode at the flow rate of 1 mL·min^−1. The UV-detection wavelength was 254 nm (for OLA) and 230 nm (for IS). The column heater temperature was set to 35 °C and the volume of injection was 30 µL.
Protein precipitation method (simple with high recovery) was used for the drug extraction from the collected plasma samples. The calibration curve samples were prepared by pipetting 50 μL of working stock solution of OLA (in methanol) and 20 μL of IS (20 µg/mL) into 140 μL of plasma and the mixture was vortexed for 30 s. Acetonitrile (290 μL) was added into the obtained mixture for protein precipitation, vortexed for 2 min and then centrifuged at 13,500 rpm for 10 min. Approximately 200 µL of the supernatant was collected and 30 µL of the supernatant was injected into HPLC system for the quantification of the drugs in the samples.
The results were represented as mean with standard deviation (± SD), unless otherwise indicated. The statistical analysis was performed using GraphPad Prism: Version-5.1 (GraphPad Software, Inc., San Diego, CA, USA). The pharmacokinetics parameters was calculated by “PK-Solver Software, Nanjing, China using MS-Excel-2013” through the non-compartmental approach. The comparative analysis of the data was accomplished by Student’s t-test and p < 0.05 was considered as statistically significant, unless otherwise indicated.

[5] = male, Wistar, rat, plasma, single oral dose 25 mg·kg^−1

Which results are given for O=C(c1cc(Cc2n[nH]c(=O)c3ccccc23)ccc1F)N1CCN(C(=O)C2CC2)CC1 [OLA, Olaparib]?
solubility ([1]; 0.1N HCl with 0.5% Soluplus, 37 °C, aqueous with cosolvent or surfactant or cyclodextrin, in 0.1N HCl (pH 1.2) with 0.5% Soluplus): 31.1 ± 3.9 µg/mL (≈ 71.6 µM); solubility ([1]; 0.1N HCl with 0.5% Tween-80, 37 °C, aqueous with cosolvent or surfactant or cyclodextrin, in 0.1N HCl (pH 1.2) with 0.5% Tween-80): 12.7 ± 3.9 µg/mL (≈ 29.2 µM); solubility ([1]; 37 °C, simulated gastric fluid, in 0.1N HCl (pH 1.2)): 7.1 ± 2.7 µg/mL (≈ 16.3 µM); solubility at 72 h ([1]; phosphate buffer (PBS) with 0.5% Soluplus, pH 7.4, aqueous with cosolvent or surfactant or cyclodextrin, in PBS with 0.5% Soluplus, 37 °C): 35.6 ± 7.2 µg/mL (≈ 81.9 µM); solubility at 72 h ([1]; phosphate buffer (PBS) with 0.5% Tween-80, pH 7.4, aqueous with cosolvent or surfactant or cyclodextrin, in PBS with 0.5% Tween-80, 37 °C): 14.2 ± 5.1 µg/mL (≈ 32.7 µM); solubility at 72 h ([1]; phosphate buffer (PBS), pH 7.4, aqueous buffer, in PBS, 37 °C): 9.3 ± 2.4 µg/mL (≈ 21.4 µM); IC50 (MCF-7 cells): 28.4 µg/mL; Concentration at which the Pgp-mediated efflux is saturated (P-glycoprotein (Pgp)): > 260 µM; Increased activities of Caspase-3 vs control (Caspase-3): approximately 4.3 folds; Solubility at intestinal fluid pH [2]: 0.16 mg·mL^−1; Increased expression of Caspase-9 vs control (Caspase-9): ~2 folds; p53 protein expression, times higher than control (p53): 7.2 times; AUC(0-t) ([3]; male, Wistar, rat, plasma, single oral dose 25 mg·kg^−1, read-out: AUC0–12 h): 882 ± 137 ng·h/mL; Last plasma sample in which the drug was detected ([3]; oral, undetected in 10 h and 12 h samples): up to 8 h; AUC(0-inf) [4, 5]: 913 ± 138 ng·h/mL; Tmax [4, 5]: 2 h; half-life [4, 5]: 1.36 ± 0.04 h; MRT inf ([4]; male, Wistar, rat, plasma, single oral dose 25 mg·kg^−1, read-out: MRT0-∞): 3.37 ± 0.03 h; Cmax ([4]; male, Wistar, rat, single oral dose 25 mg·kg^−1, plasma): 278 ± 46.5 ng/mL; AUMC0-∞ ([4]; single oral dose 25 mg·kg^−1): 3081.17 ± 471.32 ng·mL^−1·h^2; Cl/F ([4]; single oral dose 25 mg·kg^−1, listed as OLA-Pure): 6.94 ± 0.96 L/h; Cl/F ([4]; single oral dose 25 mg·kg^−1, listed as OLA-pure): 6.94 L/h
